Measurements as given in ChEMBL document CHEMBL1201861, “Genomics of Drug Sensitity in Cancer screening data, Wellcome Trust Sanger Institute”.

Key:
Type in all cases: functional, cell-based
NCCIT = experiment: SANGER: Inhibition of human NCCIT cell growth in a cell viability assay.
NCI-H292 = experiment: cells; details: Homo sapiens;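 also: growth inhibition of NCI-H292 cells, read out with a cell viability assay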
Description: SANGER: Inhibition of human NCI-H292 cell growth in a cell viability assay.

SW48 = experiment: cells; details: Homo sapiens;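 also: growth inhibition of SW48 cells, read out with a cell viability assay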
Description: SANGER: Inhibition of human SW48 cell growth in a cell viability assay.

KYSE-270 = experiment: cells; details: Homo sapiens;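 also: cell growth inhibition measured with a viability assay in the human KYSE-270 line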
Description: SANGER: Inhibition of human KYSE-270 cell growth in a cell viability assay.

EFO-27 = experiment: cells; details: Homo sapiens;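 also: growth inhibition of EFO-27 cells, read out with a cell viability assay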
Description: SANGER: Inhibition of human EFO-27 cell growth in a cell viability assay.

CAL-72 = experiment: cells; details: Homo sapiens;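 also: cell viability assay measuring inhibition of proliferation in the CAL-72 cell line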
Description: SANGER: Inhibition of human CAL-72 cell growth in a cell viability assay.

NCI-H2122 = experiment: cells; details: Homo sapiens;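 also: growth inhibition of the cells, read out with a cell viability assay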
Description: SANGER: Inhibition of human NCI-H2122 cell growth in a cell viability assay.

Raji = experiment: cells; details: Homo sapiens;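 also: cell viability assay measuring inhibition of Raji cell growth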
Description: SANGER: Inhibition of human Raji cell growth in a cell viability assay.

DG-75 = experiment: cells; details: Homo sapiens;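 also: growth inhibition of DG-75 cells, read out with a cell viability assay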
Description: SANGER: Inhibition of human DG-75 cell growth in a cell viability assay.

SW13 = experiment: cells; details: Homo sapiens;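 also: IC50 is inhibition of SW13 cell growth, read out with a cell viability assay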
Description: SANGER: Inhibition of human SW13 cell growth in a cell viability assay.

CAPAN-1 = experiment: cells; details: Homo sapiens;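 also: growth suppression of CAPAN-1 cells, read out by a cell viability assay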
Description: SANGER: Inhibition of human CAPAN-1 cell growth in a cell viability assay.

CAL-39 = experiment: cells; details: Homo sapiens;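 also: cell viability assay measuring growth inhibition of CAL-39 cells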
Description: SANGER: Inhibition of human CAL-39 cell growth in a cell viability assay.

MHH-CALL-2 = experiment: cells; details: Homo sapiens;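 also: growth inhibition of the cell line, read out in a cell viability assay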
Description: SANGER: Inhibition of human MHH-CALL-2 cell growth in a cell viability assay.

OAW-28 = experiment: cells; details: Homo sapiens;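 also: growth inhibition of OAW-28 cells, read out with a cell viability assay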
Description: SANGER: Inhibition of human OAW-28 cell growth in a cell viability assay.

KYSE-150 cell line = experiment: cells; details: Homo sapiens;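 also: growth inhibition of human KYSE-150 cells, read out with a cell viability assay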
Description: SANGER: Inhibition of human KYSE-150 cell growth in a cell viability assay.

A673 = experiment: cells; details: Homo sapiens;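 also: growth inhibition of human A673 cells, read out through a cell viability assay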
Description: SANGER: Inhibition of human A673 cell growth in a cell viability assay.

HuO-3N1 = experiment: cells; details: Homo sapiens;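 also: cell viability readout used to measure how strongly compounds suppress proliferation of human HuO-3N1 cells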
Description: SANGER: Inhibition of human HuO-3N1 cell growth in a cell viability assay.

G-361 = experiment: cells; details: Homo sapiens
EFO-21 = experiment: cells; details: Homo sapiens;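 also: growth inhibition of EFO-21 cells measured with a viability assay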
Description: SANGER: Inhibition of human EFO-21 cell growth in a cell viability assay.

U-698-M = experiment: cells; details: Homo sapiens
Description: SANGER: Inhibition of human U-698-M cell growth in a cell viability assay.

BXPC-3 = experiment: cells; details: Homo sapiens;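 also: growth inhibition of human BxPC-3 cells, read out by a cell viability assay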
Description: SANGER: Inhibition of human BxPC-3 cell growth in a cell viability assay.

KYSE-510 = experiment: cells; details: Homo sapiens;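 also: cell viability readout used to measure how strongly growth of the cell line is suppressed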
Description: SANGER: Inhibition of human KYSE-510 cell growth in a cell viability assay.

NUGC-3 = experiment: cells; details: Homo sapiens;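 also: growth inhibition of human NUGC-3 cells, read out with a cell viability assay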
Description: SANGER: Inhibition of human NUGC-3 cell growth in a cell viability assay.

RPMI 8402 = experiment: SANGER: Inhibition of human RPMI-8402 cell growth in a cell viability assay.
LOUCY = experiment: cells; details: Homo sapiens;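 also: growth inhibition of human LOUCY cells, read out with a cell viability assay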
Description: SANGER: Inhibition of human LOUCY cell growth in a cell viability assay.

CAL-120 = experiment: cells; details: Homo sapiens;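 also: cell growth inhibition, read out as cell viability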
Description: SANGER: Inhibition of human CAL-120 cell growth in a cell viability assay.

SNU-16 = experiment: cells; details: Homo sapiens;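 also: growth inhibition of human SNU-16 cells, determined with a cell viability readout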
Description: SANGER: Inhibition of human NCI-SNU-16 cell growth in a cell viability assay.

SW837 = experiment: cells; details: Homo sapiens;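 also: growth inhibition of SW837 cells, determined with a cell viability assay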
Description: SANGER: Inhibition of human SW837 cell growth in a cell viability assay.

BT-20 = experiment: cells; details: Homo sapiens;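 also: cell viability assay measuring suppression of growth in human BT-20 cells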
Description: SANGER: Inhibition of human BT-20 cell growth in a cell viability assay.

NCI-H2452 = experiment: cells; details: Homo sapiens;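 also: growth inhibition of NCI-H2452 cells, read out with a cell viability assay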
Description: SANGER: Inhibition of human NCI-H2452 cell growth in a cell viability assay.

HCC70 = experiment: cells; details: Homo sapiens;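 also: cell viability assay measuring how strongly the compound suppresses proliferation of HCC70 cells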
Description: SANGER: Inhibition of human HCC70 cell growth in a cell viability assay.

MDA-MB-453 = experiment: cells; details: Homo sapiens
Description: SANGER: Inhibition of human MDA-MB-453 cell growth in a cell viability assay.

SCC-9 = experiment: cells; details: Homo sapiens;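 also: Read-out is a cell viability assay, with values giving inhibition of cell growth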
Description: SANGER: Inhibition of human SCC-9 cell growth in a cell viability assay.

HSC-4 = experiment: cells; details: Homo sapiens;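 also: growth inhibition of human HSC-4 cells, read out with a cell viability assay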
Description: SANGER: Inhibition of human HSC-4 cell growth in a cell viability assay.

BHT-101 = experiment: cells; details: Homo sapiens
Description: SANGER: Inhibition of human BHT-101 cell growth in a cell viability assay.

TE-15 = experiment: cells; details: Homo sapiens;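 also: cell viability readout of growth inhibition in TE-15 cells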
Description: SANGER: Inhibition of human TE-15 cell growth in a cell viability assay.

SW756 = experiment: cells; details: Homo sapiens;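 also: growth inhibition of human SW756 cells, read out with a cell viability assay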
Description: SANGER: Inhibition of human SW756 cell growth in a cell viability assay.

NCI-H1623 = experiment: cells; details: Homo sapiens;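 also: cell viability assay used as the read-out for growth inhibition of NCI-H1623 cells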
Description: SANGER: Inhibition of human NCI-H1623 cell growth in a cell viability assay.

NCI-H2170 = experiment: cells; details: Homo sapiens;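 also: cell viability assay measuring growth inhibition of human NCI-H2170 cancer cells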
Description: SANGER: Inhibition of human NCI-H2170 cell growth in a cell viability assay.

T98G = experiment: cells; details: Homo sapiens;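 also: growth inhibition of T98G cells, read out by a cell viability assay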
Description: SANGER: Inhibition of human T98G cell growth in a cell viability assay.

SF-295 = experiment: cells; details: Homo sapiens;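 also: growth inhibition of SF-295 cells, read out with a cell viability assay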
Description: SANGER: Inhibition of human SF295 cell growth in a cell viability assay.

MG-63 = experiment: cells; details: Homo sapiens;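 also: growth inhibition of human MG-63 cells, read out with a cell viability assay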
Description: SANGER: Inhibition of human MG-63 cell growth in a cell viability assay.

RCM-1 = experiment: cells; details: Homo sapiens;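 also: growth inhibition of the RCM-1 line, determined with a cell viability readout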
Description: SANGER: Inhibition of human RCM-1 cell growth in a cell viability assay.

HCT-15 = experiment: cells; details: Homo sapiens;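 also: cell viability readout, IC50 reflecting suppression of HCT-15 cell growth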
Description: SANGER: Inhibition of human HCT-15 cell growth in a cell viability assay.

SNU-449 = experiment: cells; details: Homo sapiens
Description: SANGER: Inhibition of human SNU-449 cell growth in a cell viability assay.

SKG-IIIa = experiment: cells; details: Homo sapiens;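 also: cell growth inhibition, read out with a cell viability assay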
Description: SANGER: Inhibition of human SKG-IIIa cell growth in a cell viability assay.

HMV-2 cell line = experiment: cells; details: Homo sapiens;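 also: growth inhibition of HMV-II cells, read out with a cell viability assay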
Description: SANGER: Inhibition of human HMV-II cell growth in a cell viability assay.

MFE-280 = experiment: cells; details: Homo sapiens;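 also: growth inhibition of MFE-280 cells, determined with a cell viability readout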
Description: SANGER: Inhibition of human MFE-280 cell growth in a cell viability assay.

PFSK-1 = experiment: cells; details: Homo sapiens;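 also: cell viability assay measuring how strongly compounds suppress growth of human PFSK-1 cells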
Description: SANGER: Inhibition of human PFSK-1 cell growth in a cell viability assay.

DoTc2-4510 = experiment: cells; details: Homo sapiens
HLE = experiment: cells; details: Homo sapiens;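 also: growth inhibition of human HLE cells, read out by a cell viability assay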
Description: SANGER: Inhibition of human HLE cell growth in a cell viability assay.

LC-1F = experiment: cells; details: Homo sapiens;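 also: growth inhibition of human LC-1F cells, read out with a cell viability assay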
Description: SANGER: Inhibition of human LC-1F cell growth in a cell viability assay.

WM-115 = experiment: cells; details: Homo sapiens
Description: SANGER: Inhibition of human WM-115 cell growth in a cell viability assay.

A253 cell line = experiment: cells; details: Homo sapiens;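 also: growth inhibition of A253 cells, read out with a cell viability assay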
Description: SANGER: Inhibition of human A253 cell growth in a cell viability assay.

NCI-H1693 = experiment: cells; details: Homo sapiens;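 also: growth inhibition of the human cell line, read out with a cell viability assay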
Description: SANGER: Inhibition of human NCI-H1693 cell growth in a cell viability assay.

SCC-3 = experiment: cells; details: Homo sapiens;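 also: cell viability assay measuring inhibition of SCC-3 cell growth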
Description: SANGER: Inhibition of human SCC-3 cell growth in a cell viability assay.

NCI-H1651 = experiment: cells; details: Homo sapiens;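 also: Read-out is a cell viability assay, with IC50 expressing inhibition of NCI-H1651 cell growth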
Description: SANGER: Inhibition of human NCI-H1651 cell growth in a cell viability assay.

NCI-H2052 = experiment: cells; details: Homo sapiens;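 also: growth inhibition of NCI-H2052 cells, read out with a cell viability assay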
Description: SANGER: Inhibition of human NCI-H2052 cell growth in a cell viability assay.

REH = experiment: cells; details: Homo sapiens
Description: SANGER: Inhibition of human REH cell growth in a cell viability assay.

TUR = experiment: cells; details: Homo sapiens
Description: SANGER: Inhibition of human TUR cell growth in a cell viability assay.

U-118-MG = experiment: cells; details: Homo sapiens
Description: SANGER: Inhibition of human U-118-MG cell growth in a cell viability assay.

NCI-H1703 = experiment: cells; details: Homo sapiens
Description: SANGER: Inhibition of human NCI-H1703 cell growth in a cell viability assay.

Compound: C/C=C(/C)C(=O)O[C@H]1C(C)=C2[C@H]([C@@H]1OC(=O)CCCCCCC)[C@@](C)(OC(C)=O)C[C@H](OC(=O)CCC)[C@@]1(O)[C@H]2OC(=O)[C@@]1(C)O [THAPSIGARGIN]
- IC50 (NCCIT): < 2 nM
- IC50 (NCI-H292): 14.9 nM
- IC50 (SW48): 1.67 nM
- IC50 (KYSE-270): 1.49 nM
- IC50 (EFO-27): 25.4 nM
- IC50 (CAL-72): 2.27 nM
- IC50 (NCI-H2122): 4.49 nM
- IC50 (Raji): 38.4 nM
- IC50 (DG-75): > 512 nM
- IC50 (SW13): 9.38 nM
- IC50 (CAPAN-1): 13.5 nM
- IC50 (CAL-39): < 2 nM
- IC50 (MHH-CALL-2): 468 nM
- IC50 (OAW-28): 50.3 nM
- IC50 (KYSE-150 cell line): 22.2 nM
- IC50 (A673): 7.24 nM
- IC50 (HuO-3N1): 43.2 nM
- IC50 (G-361): 10.7 nM
- IC50 (EFO-21): 16.4 nM
- IC50 (U-698-M): 77.4 nM
- IC50 (BXPC-3): 6.53 nM
- IC50 (KYSE-510): < 2 nM
- IC50 (NUGC-3): < 2 nM
- IC50 (RPMI 8402): 5.23 nM
- IC50 (LOUCY): 29.9 nM
- IC50 (CAL-120): 44.1 nM
- IC50 (SNU-16): 189 nM
- IC50 (SW837): 1.66 nM
- IC50 (BT-20): > 512 nM
- IC50 (NCI-H2452): > 512 nM
- IC50 (HCC70): 22.6 nM
- IC50 (MDA-MB-453): > 512 nM
- IC50 (SCC-9): 447 nM
- IC50 (HSC-4): > 512 nM
- IC50 (BHT-101): 88.1 nM
- IC50 (TE-15): 4.91 nM
- IC50 (SW756): 12.7 nM
- IC50 (NCI-H1623): > 512 nM
- IC50 (NCI-H2170): 14.4 nM
- IC50 (T98G): 0.741 nM
- IC50 (SF-295): < 2 nM
- IC50 (MG-63): 2.79 nM
- IC50 (RCM-1): 122 nM
- IC50 (HCT-15): 155 nM
- IC50 (SNU-449): 4.18 nM
- IC50 (SKG-IIIa): > 512 nM
- IC50 (HMV-2 cell line): 6.87 nM
- IC50 (MFE-280): 36.6 nM
- IC50 (PFSK-1): 12.8 nM
- IC50 (DoTc2-4510): 12.4 nM
- IC50 (HLE): 2.75 nM
- IC50 (LC-1F): 4.19 nM
- IC50 (WM-115): 21.9 nM
- IC50 (A253 cell line): 1.73 nM
- IC50 (NCI-H1693): > 512 nM
- IC50 (SCC-3): 41.6 nM
- IC50 (NCI-H1651): 41.3 nM
- IC50 (NCI-H2052): 6.4 nM
- IC50 (REH): 6.39 nM
- IC50 (TUR): 12.5 nM
- IC50 (U-118-MG): 31.9 nM
- IC50 (NCI-H1703): 10.1 nM
